According to article PMC3326647, “Single Enantiomer of YK-4-279 Demonstrates Specificity in Targeting the Oncogene EWS-FLI1” (Oncotarget, 2012):
Where two headings read alike, the source gives them in different places.

How the values were obtained:
TC32 cells = assay: Cellular proliferation (WST) assay, TC32; type: cell-based; settings: Homo sapiens, TC-32, 72 h; TC32, ESFT (Type 1); read-out: IC50 at 3 days (+/− SEM)
Experimental: (§1) TC32, TC71, RDES, MMH-ES-1, STA-ET 7.2, A4573, and PC3 cells were grown in RPMI with 10% FBS and 1% HEPES. SKES cells were grown in McCoy's 5A medium with 15% FBS. MCF7, MDA-MB-231, PANC1, and ASPC1 cells were grown in colorless DMEM with 10% FBS. Cells were grown at a plating density of 5,000 – 15,000 cells/well, depending on cell line, in a 96-well plate. Small molecule or vehicle alone (DMSO) were added to cells in appropriate growth media the day after plating. After three days, viable cells were quantified using WST (Roche) according to the manufacturer's protocol. IC50 values were calculated by sigmoidal dose-response curve fit using Prism Graphpad 4.0.

[1] = Pharmacokinetic analysis in rats; type: in vivo; settings: both sexes, Sprague-Dawley, plasma, po; rat, gavage administration
Experimental: (§2) All pharmacokinetic studies were performed using Sprague-Dawley rats. Nine rats per gender were assigned to nine dose groups, which received either a single IV injection of YK-4-279, (S)-YK-4-279, or (R)-YK-4-279 at a target dose of 25 mg/kg, or a single gavage administration of small molecule at a target dose level of 25 or 50 mg/kg. Plasma was obtained from the rats and samples were processed by liquid extraction followed by analysis using liquid chromatography with mass spectrometry (LC/MS). Average urine concentrations were measured at intervals from 0-4, 4-8, and 8-12 hours after dosing. 18 Fox Chase SCID Beige mice were injected with A4573 cells and received six doses of (S)-YK-4-279 at 75 mg/kg to determine concentration of small molecule in the tumors.

MMH-ES-1 cells = assay: Cellular proliferation (WST) assay, MMH-ES-1; type: cell-based; settings: 72 h; MMH-ES-1, ESFT (Type 2); read-out: IC50 at 3 days (+/− SEM)
Experimental: as §1

SKES cells = assay: Cellular proliferation (WST) assay, SKES; type: cell-based; settings: 72 h, ESFT (Type 2), read-out: IC50 at 3 days (+/− SEM)
Experimental: as §1

ESFT cell lines = assay: Cellular proliferation (WST) assay, panel of seven ESFT cell lines; type: cell-based; settings: 72 h
Experimental: as §1

[2] = target: T1, EWS-FLI1/RHA interaction in TC32 cells (Homo sapiens, UniProt Q01543+Q01844); assay: Co-immunoprecipitation of EWS-FLI1 and RHA from treated TC32 cells, western blot densitometry; type: cell-based; settings: 15 hours; for RHA coimmunoprecipitated with EWS-FLI1: 10μM; for IC50: 0.3 to 10μM, read-out: IC50, densitometry of RHA relative to FLI1
T1 construct: FLI1 C-terminal portion (fusion partner, Q01543); endogenous in cells; host or cells: TC32
T1 sequence (Q01844+Q01543 with tags, fused parts or gaps): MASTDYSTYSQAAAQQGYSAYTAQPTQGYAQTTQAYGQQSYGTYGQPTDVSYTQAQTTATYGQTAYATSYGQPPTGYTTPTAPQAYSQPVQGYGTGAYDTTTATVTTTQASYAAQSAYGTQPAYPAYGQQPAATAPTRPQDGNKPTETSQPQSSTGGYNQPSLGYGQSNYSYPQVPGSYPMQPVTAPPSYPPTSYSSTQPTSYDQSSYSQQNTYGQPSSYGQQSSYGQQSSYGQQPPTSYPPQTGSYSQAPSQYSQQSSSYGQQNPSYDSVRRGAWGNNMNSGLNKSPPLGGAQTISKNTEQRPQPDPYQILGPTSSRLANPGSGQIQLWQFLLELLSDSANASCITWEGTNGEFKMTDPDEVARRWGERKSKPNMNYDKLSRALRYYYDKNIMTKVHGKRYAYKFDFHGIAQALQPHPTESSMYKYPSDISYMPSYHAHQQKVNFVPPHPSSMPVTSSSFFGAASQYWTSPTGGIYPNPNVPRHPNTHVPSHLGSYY
Experimental: TC32 were grown to ~70% confluency and cells were treated for 15 hours with small molecule. Nuclear lysate was collected using the Active Motif Magnetic Co-IP Kit (Active Motif). Protein concentration was determined using bicinchoninic acid protein assay for each lysate (Pierce) and lysate was bound to 1μg of antibody overnight at 4C on a rotating axis with addition of same concentration of small molecule as used for 15 hour treatment. Magnetic beads (Active Motif) were added to the lysates and tumbled for 2 hours at 4C. Immunoprecipitated proteins were resolved using 10% PAGE and transferred to a polyvinylidene difluoride membrane (Millipore). Membranes were blocked in 5% nonfat dry milk in TTBS (20mM Tris-HCl, 150mM NaCl, 0.5% Tween 20) for 2 hours. FLI1 (Santa Cruz Biotechnologies) and RHA (Abcam) antibodies were used at 1:1000 dilutions in 5% nonfat dry milk for 2 hours. Horseradish peroxidase-linked anti-rabbit antibody (GE Healthcare) was added for 1 hour. Detection was carried out using Millipore Immobilon Western Chemiluminescent HRP Substrate per the manufacturer's instructions (Millipore Corp.). Chemiluminescence was detected using a Fujifilm LAS-3000 imaging system. Densitometry values were obtained using ImageJ software.

STA-ET 7.2 cells = assay: Cellular proliferation (WST) assay, STA-ET 7.2; type: cell-based; settings: 72 h; STA-ET 7.2, ESFT (Type 2); read-out: IC50 at 3 days (+/− SEM)
Experimental: as §1

[3] = tested on: caspase-3 activity in A4573 ESFT cells; assay: Caspase-3 activation dose titration in A4573 cells; type: cell-based; settings: between 0.3 and 1μM, 18 hours
Experimental: (§3) Cells were plated at 100,000 – 200,000 cells/well, depending on cell line, in a 12 well plate. Small molecule was added the following day. 18 hours later, lysates were collected using the manufacturer's protocol for the AC-DEVD-AMC substrate (BD Bioscience Pharmingen). Caspase-3 substrate was incubated for 2 hours with protein lysate and fluorescence from cleaved substrate was measured in a fluorimeter. Fluorescent signal was then normalized to protein lysate via BCA assay.

[4] = Evaluation of racemization in A4573 ESFT xenograft tumors; type: in vivo; settings: A4573 tumor-bearing SCID mice, IP (75 mg/kg), tumors resected two hours following dosing
Experimental: as §2

[5] = tested on: caspase-3 activity in ESFT cells (TC32, RDES, SKES, A4573, MMH-ES-1, STA-ET 7.2); assay: Caspase-3 activity in ESFT cells; type: cell-based; settings: 10μM, 18 hours
Experimental: as §3

[6] = tested on: non-transformed cell lines; parameters: method as in PMID 19584866; settings: racemic; cited from earlier work
MDA-MB-231 cells = settings: MDA-MB-231 from a different source, previously reported; cited from earlier work
PANC1 cells = settings: PANC1 from a different source, previously reported; cited from earlier work
[7] = parameters: method as in PMID 19584866; settings: xenograft mice, 75 mg per kg body weight; cited from earlier work
[8] = mean over seven ESFT cell lines, read-out: Mean IC50 at 3 days (+/− SEM)
[9] = seven EWS-FLI1 expressing cell lines, three days, read-out: range of mean IC50 values across ESFT cell lines

Compound	IC50 (TC32 cells) [nM]	bioavailability [1] [%]	IC50 (MMH-ES-1 cells) [nM]	IC50 (SKES cells) [nM]	IC50 (ESFT cell lines; [8]) [nM]	IC50 (ESFT cell lines; [9]) [nM]	RHA coimmunoprecipitated with EWS-FLI1 [2]	IC50 (STA-ET 7.2 cells) [nM]	slope (m), rate of caspase activity increase [3]	IC50 [2] [nM]	Percent of (S)-YK-4-279 present in tumor [4] [%]	caspase-3 activation, average across the panel of six ESFT cell lines [5] [fold]	IC50 [6] [nM]	IC50 (MDA-MB-231 cells) [nM]	IC50 (PANC1 cells) [nM]	toxicity [7]
COc1ccc(C(=O)C[C@]2(O)C(=O)Nc3c(Cl)ccc(Cl)c32)cc1 [(R)-YK-4-279]	16300	8 to 15	26000	21000	18500	11700 to 26000	coimmunoprecipitation of EWS-FLI1 with RHA	21200	–	–	–	–	–	–	–	–
COc1ccc(C(=O)C[C@@]2(O)C(=O)Nc3c(Cl)ccc(Cl)c32)cc1 [(S)-YK-4-279]	280	2 to 6	340	180	340	160 to 870	significant reduction in complexed RHA	310	7.23 ± 0.32	1800	100	10.3	–	–	–	–
COc1ccc(C(=O)CC2(O)C(=O)Nc3c(Cl)ccc(Cl)c32)cc1 (stereo not shown) [YK-4-279]	940	–	940	330	1020	330 to 1830	significant reduction in complexed RHA	600	4.43 ± 0.66	4900	–	8.8	> 30000	> 20000	> 20000	no toxicity
